Test results from patent US12084420B2, “Indoline compounds for inhibiting KIF18A” (Volastra Therapeutics, Inc., priority 2021, dated 2024).
Like-named read-outs stand apart in the source and are kept apart here.

Assays:
hKIF18A (1-374) = hKIF18A (1-374) (Homo sapiens (Human), UniProt Q8NI77); assay: Inhibition of KIF18A microtubule-dependent ATPase activity (ADP-Glo); settings: KIF18A microtubule-dependent ATPase activity, biochemical assay
NIH:OVCAR-3 cells = assay: Cell viability of KIF18a-sensitive cell lines, NIH:OVCAR-3 (Cell Titre-Glo, 7 days); type: cell-based; settings: NIH-OVCAR3 cells, 7 days, Cell Titre-Glo, read-out: NIH-OVCAR3 IC50
Procedure: (§1) Cell Viability of KIF18a-Sensitive Cell Lines
(§2) Cell lines were seeded as follows 24 hours before compound treatment: HCC15 (Korean Cell Line Bank) 600 cell/well, 95 μL of RPMI-1640 media supplemented with 100 units/mL penicillin, 100 units/mL streptomycin and 10% FBS; NIH:OVCAR-3 (ATCC), 1000 cell/well, 95 μL of RPMI-1640 media supplemented with 100 units/mL penicillin, 100 units/mL streptomycin, 0.01 mg/mL bovine insulin, and 20% FBS; JIMT-1 (Addexbio) 1000 cell/well, 95 μL of DMEM media supplemented with 100 units/mL penicillin, 100 units/mL streptomycin, and 10% FBS.
(§3) Test compounds were added to cells in a 20× dilution scheme by adding 5 μL of serially diluted compound to the plate, and the treated cells were incubated for an additional 7 days in a 37° C., 5% CO2 incubator. DMSO was used as the negative control (0% effect), and wells omitting cells were used as the positive control (100% effect). The cells were incubated for seven days, and cell viability determined via the Promega Cell Titre-Glo® Assay kit. Luminescence units were converted to ATP concentrations via an ATP standard curve (10 point, 2-fold dilution from 5 uM). % Inhibition was calculated for each well as: ([max−min]−[test−min])/[max−min]. IC50 values were calculated from concentration vs. % Inhibition data via a four-parameter variable slope model.

JIMT-1 cells = assay: Cell viability of KIF18a-sensitive cell lines, JIMT-1 (Cell Titre-Glo, 7 days); type: cell-based; settings: JIMT-1 cells, 7 days, Cell Titre-Glo, read-out: JIMT-1 IC50
Procedure: as §1, §2, §3

HCC15 cells = assay: Cell viability of KIF18a-sensitive cell lines, HCC15 (Cell Titre-Glo, 7 days); type: cell-based; settings: HCC-15 cells, 7 days, Cell Titre-Glo, read-out: HCC-15 IC50
Procedure: as §1, §2, §3

[1] = target: KIF18a-Microtubule Complex (Homo sapiens (Human), UniProt Q8NI77); assay: Binding kinetics to KIF18a-microtubule complex (global progress curve analysis); settings: for kon (on-rate from binding kinetics assay) / koff (off-rate from binding kinetics assay): global progress curve analysis; for Ki: read-out: KI (determined from binding kinetic assay koff/kon), koff/kon; for koff: read-out: koff (off-rate from binding kinetics assay)
KIF18a-Microtubule Complex, sequence (Q8NI77 whole entry, looked up): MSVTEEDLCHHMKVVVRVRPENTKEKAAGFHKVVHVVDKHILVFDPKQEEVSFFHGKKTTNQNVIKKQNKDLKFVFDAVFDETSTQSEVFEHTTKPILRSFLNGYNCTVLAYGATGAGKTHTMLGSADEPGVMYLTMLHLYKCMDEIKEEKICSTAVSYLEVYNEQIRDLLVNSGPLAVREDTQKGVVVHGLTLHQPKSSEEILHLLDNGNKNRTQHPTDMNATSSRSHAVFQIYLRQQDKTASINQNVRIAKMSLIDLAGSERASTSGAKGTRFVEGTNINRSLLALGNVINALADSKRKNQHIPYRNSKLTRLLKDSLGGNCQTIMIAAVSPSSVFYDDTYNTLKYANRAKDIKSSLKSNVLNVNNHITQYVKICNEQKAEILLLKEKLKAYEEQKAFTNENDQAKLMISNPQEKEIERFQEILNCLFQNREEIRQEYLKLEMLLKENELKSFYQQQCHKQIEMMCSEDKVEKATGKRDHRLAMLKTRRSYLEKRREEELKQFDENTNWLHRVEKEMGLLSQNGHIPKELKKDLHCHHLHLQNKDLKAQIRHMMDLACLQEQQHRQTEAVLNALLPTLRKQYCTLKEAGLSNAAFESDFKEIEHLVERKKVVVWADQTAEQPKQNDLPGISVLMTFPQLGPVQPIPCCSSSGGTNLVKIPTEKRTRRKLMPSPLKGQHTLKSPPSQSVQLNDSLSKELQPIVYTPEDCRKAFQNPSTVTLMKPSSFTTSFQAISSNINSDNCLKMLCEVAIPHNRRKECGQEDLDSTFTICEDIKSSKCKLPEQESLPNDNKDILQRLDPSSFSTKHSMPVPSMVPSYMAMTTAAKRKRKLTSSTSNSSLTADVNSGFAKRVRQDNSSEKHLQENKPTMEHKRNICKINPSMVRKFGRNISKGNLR
KIF18a-Microtubule Complex, sequence (Q2XVP4 whole entry partner, looked up): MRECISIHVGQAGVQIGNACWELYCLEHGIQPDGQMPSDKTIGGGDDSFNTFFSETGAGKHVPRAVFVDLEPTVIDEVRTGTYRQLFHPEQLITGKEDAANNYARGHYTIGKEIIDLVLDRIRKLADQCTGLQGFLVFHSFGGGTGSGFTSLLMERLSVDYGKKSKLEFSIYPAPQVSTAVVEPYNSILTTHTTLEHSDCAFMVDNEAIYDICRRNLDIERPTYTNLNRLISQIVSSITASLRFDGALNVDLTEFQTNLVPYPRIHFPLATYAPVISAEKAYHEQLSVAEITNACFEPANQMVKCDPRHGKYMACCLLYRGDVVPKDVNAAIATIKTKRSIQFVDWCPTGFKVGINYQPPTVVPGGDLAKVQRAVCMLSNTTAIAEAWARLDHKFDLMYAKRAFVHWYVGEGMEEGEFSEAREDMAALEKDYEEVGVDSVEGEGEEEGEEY
KIF18a-Microtubule Complex, sequence (P02554 whole entry partner, looked up): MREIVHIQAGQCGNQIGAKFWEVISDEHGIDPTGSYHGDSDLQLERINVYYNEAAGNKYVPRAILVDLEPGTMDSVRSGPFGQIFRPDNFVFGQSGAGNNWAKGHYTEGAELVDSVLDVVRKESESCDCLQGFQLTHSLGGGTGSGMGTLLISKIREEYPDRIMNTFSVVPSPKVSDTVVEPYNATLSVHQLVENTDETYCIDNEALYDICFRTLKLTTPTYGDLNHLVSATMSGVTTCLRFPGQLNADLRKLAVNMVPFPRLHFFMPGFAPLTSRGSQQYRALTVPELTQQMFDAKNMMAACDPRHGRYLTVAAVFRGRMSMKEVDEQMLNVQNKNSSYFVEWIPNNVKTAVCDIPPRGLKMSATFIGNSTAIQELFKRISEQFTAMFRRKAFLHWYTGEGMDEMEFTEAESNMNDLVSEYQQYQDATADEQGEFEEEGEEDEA
Procedure: Binding Kinetics to KIF18a-Microtubule Complex
Compound binding kinetics parameters (kon and koff) were determined by the method of global progress curve analysis (GPCA). […] ADP product levels were determined by the Promega® ADP-Glo assay. The time/dose-dependent progress curves were then globally fit to a Michaelis-Menten kinetics model with 1-step slow binding inhibition to derive both on-rate kon and off-rate koff values (Zhang, R., Wong, K. (2017): “High performance enzyme kinetics of turnover, activation and inhibition for translational drug discovery”, Expert Opinion on Drug Discovery, 2017 January; 12(1):17-37. doi: 10.1080/17460441.2017.1245721).

hKIF18A (1-374), sequence (Q8NI77 whole entry, looked up): as the sequence (Q8NI77 whole entry, looked up) above
hKIF18A (1-374), sequence (Q2XVP4 whole entry partner, looked up): as the sequence (Q2XVP4 whole entry partner, looked up) above
hKIF18A (1-374), sequence (P02554 whole entry partner, looked up): as the sequence (P02554 whole entry partner, looked up) above

| SMILES | IC50 (hKIF18A (1-374)) | kon (on-rate from binding kinetics assay) [1] | disc. t1/2 (dissociation half-life ln(2)/koff) [1] | Ki [1] | IC50 (HCC15 cells; HCC15, 168 h) | further results |
| --- | --- | --- | --- | --- | --- | --- |
| CS(=O)(=O)Nc1ccc2c(c1)C1(CCC3(CC3)CC1)CN2C(=O)c1cccc(S(=N)(=O)C2CCCC2)c1 (single isomer, unassigned) [Compound 287b] | 0.012 µM |  |  |  |  | IC50 (NIH:OVCAR-3 cells): 0.033 µM; IC50 (JIMT-1 cells): 0.064 µM; IC50 (HCC15 cells): 0.097 µM |
| CS(=O)(=O)Nc1ccc2c(c1)C1(CCC3(CC3)CC1)CN2C(=O)c1ccc([C@H](O)C2CCCC2)o1 (single isomer, unassigned) [Compound 352a] |  |  |  |  |  | IC50 (NIH:OVCAR-3 cells): 0.045 µM; IC50 (JIMT-1 cells): 0.04 µM; IC50 (HCC15 cells): 0.034 µM |
| CS(=O)(=O)Nc1ccc2c(c1)C1(CCC3(CC3)CC1)CN2C(=O)c1ccc([C@@H](O)C2CCCC2)o1 (single isomer, unassigned) [Compound 352b] |  |  |  |  |  | IC50 (NIH:OVCAR-3 cells): 0.027 µM; IC50 (JIMT-1 cells): 0.019 µM; IC50 (HCC15 cells): 0.019 µM |
| CS(=O)(=O)Nc1ccc2c(c1)C1(CCCCC1)CN2C(=O)c1cccc(S(=O)(=O)N2CCC(F)(F)CC2)c1 [Compound 19, N-(1′-(3-((4,4-difluoropiperidin-1-yl)sulfonyl)benzoyl)spiro[cyclohexane-1,3′-indolin]-5′-yl)methanesulfonamide] | 0.032 µM | 14200 M⁻¹ s⁻¹ | 7.2 h | 0.0018 µM | 0.092 µM | koff [1]: 2.67e-05 s⁻¹ |
| CCNc1ccc2c(c1)C1(CCC3(CC3)CC1)CN2C(=O)c1cccc(S(=O)(=O)N2CCC(F)(F)CC2)c1 [Compound 30, (3-((4,4-difluoropiperidin-1-yl)sulfonyl)phenyl)(5″-(ethylamino)dispiro[cyclopropane-1,1′-cyclohexane-4′,3″-indolin]-1″-yl)methanone] | 0.18 µM |  |  |  | 3.5 µM | IC50 (NIH:OVCAR-3 cells; Homo sapiens, OVCAR-3, 168 h): 1.43 µM; IC50 (JIMT-1 cells; Homo sapiens, 168 h): 2.3 µM |
| CS(=O)(=O)Nc1ccc2c(c1)C1(CCCCC1)CN2C(=O)c1cccc(S(=O)(=O)C2CCCCC2)c1 [Compound 70, N-(1′-(3-(cyclohexylsulfonyl)benzoyl)spiro[cyclohexane-1,3′-indolin]-5′-yl)methanesulfonamide] | 0.03 µM | 10000 M⁻¹ s⁻¹ | 3.0 h | 0.0065 µM | 0.59 µM | koff [1]: 6.39e-05 s⁻¹ |
| CC1CCC2(CC1)CN(C(=O)c1cccc(S(=O)(=O)NC(C)(C)C)c1)c1ccc(NS(C)(=O)=O)cc12 (stereo not drawn) [Compound 140, N-(tert-butyl)-3-(4-methyl-5′-(methylsulfonamido)spiro[cyclohexane-1,3′-indoline]-1′-carbonyl)benzenesulfonamide] | 0.013 µM |  |  |  | 0.038 µM |  |
| CC(C)(C)NS(=O)(=O)c1cccc(C(=O)N2C[C@]3(CC[C@H](C)CC3)c3cc(NS(C)(=O)=O)ccc32)c1 [Compound 140a] |  | 13100 M⁻¹ s⁻¹ | 29 h | 0.0005 µM |  | koff (off-rate from binding kinetics assay) [1]: 6.67e-06 s⁻¹; IC50 (HCC15 cells): 0.01 µM |
| CC(C)(C)NS(=O)(=O)c1cccc(C(=O)N2C[C@]3(CC[C@@H](C)CC3)c3cc(NS(C)(=O)=O)ccc32)c1 [Compound 140b] |  | 16100 M⁻¹ s⁻¹ | 8.7 h | 0.0014 µM |  | koff (off-rate from binding kinetics assay) [1]: 2.22e-05 s⁻¹; IC50 (HCC15 cells): 0.045 µM |
| CC(C)(C)NS(=O)(=O)c1cccc(C(=O)N2CC3(CCC4(CC4)CC3)c3cc(NS(=O)(=O)CCO)ccc32)c1 [Compound 148, N-(tert-butyl)-3-(5″-((2-hydroxyethyl)sulfonamido)dispiro [cyclopropane-1,1′-cyclohexane-4′,3″- indoline]-1″- carbonyl)benzenesulfonamide] | 0.012 µM | 13600 M⁻¹ s⁻¹ | 48 h | 0.00029 µM | 0.036 µM | koff [1]: 3.89e-06 s⁻¹ |
| CS(=O)(=O)Nc1ccc2c(c1)C1(CCC3(CC3)CC1)CN2C(=O)c1cccc(S(=O)(=O)N2CC3(CCC3)C2)c1 [Compound 151, N-(1″-(3-((2-azaspiro[3.3]heptan-2-yl)sulfonyl)benzoyl)dispiro[cyclopropane-1,1′-cyclohexane-4′,3″-indolin]-5″- yl)methanesulfonamide] | 0.0068 µM | 26700 M⁻¹ s⁻¹ | 61 h | 0.00012 µM | 0.013 µM | koff [1]: 3.06e-06 s⁻¹ |
| CS(=O)(=O)Nc1ccc2c(c1)C1(CCC3(CC3)CC1)CN2C(=O)c1cccc(S(=O)(=O)N2CC3(CCO3)C2)c1 [Compound 153, N-(1″-(3-((1-oxa-6-azaspiro[3.3]heptan-6-yl)sulfonyl)benzoyl)dispiro[cyclopropane-1,1′-cyclohexane-4′,3″-indolin]-5″- yl)methanesulfonamide] | 0.018 µM |  |  |  | 0.044 µM |  |
| CS(=O)(=O)Nc1ccc2c(c1)C1(CCCCC1)CN2C(=O)c1cccc(C(O)C2CCCC2)c1 (stereo not drawn) [Compound 157, N-(1′-(3-(cyclopentyl(hydroxy)methyl)benzoyl)spiro[cyclohexane-1,3′-indolin]-5′-yl)methanesulfonamide] | 0.058 µM |  |  |  | 0.6 µM | IC50 (NIH:OVCAR-3 cells; Homo sapiens, OVCAR-3, 168 h): 0.72 µM; IC50 (JIMT-1 cells; Homo sapiens, 168 h): 0.44 µM |
| CS(=O)(=O)Nc1ccc2c(c1)C1(CCC3(CC3)CC1)CN2C(=O)c1cccc(CN2CCC(F)(F)CC2)c1 [Compound 163, N-(1″-(3-((4,4-difluoropiperidin-1-yl)methyl)benzoyl)dispiro[cyclopropane-1,1′-cyclohexane-4′,3″-indolin]-5″- yl)methanesulfonamide] | 0.02 µM |  |  |  | 0.14 µM | IC50 (NIH:OVCAR-3 cells; Homo sapiens, OVCAR-3, 168 h): 0.19 µM; IC50 (JIMT-1 cells; Homo sapiens, 168 h): 0.12 µM |
| CS(=O)(=O)Nc1ccc2c(c1)C1(CCC3(CC3)CC1)CN2C(=O)c1cccc(S(=O)(=O)NC2CCC2)c1 [Compound 168, N-cyclobutyl-3-(5″- (methylsulfonamido)dispiro[cyclopropane-1,1′-cyclohexane-4′,3″-indoline]-1″-carbonyl)benzenesulfonamide] | 0.0055 µM |  |  |  | 0.028 µM |  |
| CS(=O)(=O)Nc1ccc2c(c1)C1(CCC3(CC3)CC1)CN2C(=O)c1cccc(S(=O)(=O)NC2CC=CC2)c1 [Compound 172, N-(cyclopent-3-en-1-yl)-3-(5″- (methylsulfonamido)dispiro[cyclopropane-1,1′-cyclohexane-4′,3″-indoline]-1″-carbonyl)benzenesulfonamide] | 0.0055 µM |  |  |  | 0.032 µM |  |
| CC1(NS(=O)(=O)c2cccc(C(=O)N3CC4(CCC5(CC5)CC4)c4cc(NS(C)(=O)=O)ccc43)c2)CCC1 [Compound 182, N-(1-methylcyclobutyl)-3-(5″- (methylsulfonamido)dispiro[cyclopropane-1,1′-cyclohexane-4′,3″-indoline]-1″-carbonyl)benzenesulfonamide] | 0.0073 µM | 30600 M⁻¹ s⁻¹ | 24 h | 0.00026 µM | 0.015 µM | koff [1]: 8.06e-06 s⁻¹ |
| CC(C)(C)NS(=O)(=O)c1cccc(C(=O)N2CC3(CCC4(CC4)CC3)c3cc(NS(C)(=O)=O)c(F)cc32)c1 [Compound 309, N-(tert-butyl)-3-(6″-fluoro-5″-(methylsulfonamido)dispiro[cyclopropane-1,1′-cyclohexane-4′,3″-indoline]-1″-carbonyl)benzenesulfonamide] | 0.0065 µM |  |  |  | 0.012 µM | IC50 (NIH:OVCAR-3 cells; Homo sapiens, OVCAR-3, 168 h): 0.012 µM; IC50 (JIMT-1 cells; Homo sapiens, 168 h): 0.0094 µM |
| CC(C)(C)NS(=O)(=O)c1cccc(C(=O)N2CC3(CCC4(CC4)CC3)c3c2ccc(NS(C)(=O)=O)c3F)c1 [Compound 310, N-(tert-butyl)-3-(4″-fluoro-5″-(methylsulfonamido)dispiro[cyclopropane-1,1′-cyclohexane-4′,3″-indoline]-1″-carbonyl)benzenesulfonamide] | 0.0066 µM |  |  |  | 0.011 µM | IC50 (NIH:OVCAR-3 cells; Homo sapiens, OVCAR-3, 168 h): 0.0091 µM; IC50 (JIMT-1 cells; Homo sapiens, 168 h): 0.0079 µM |
